Patent publication US10435399B2, “HDAC6 inhibitory heterocyclic compound” (TAKEDA PHARMACEUTICAL COMPANY LIMITED, priority 2017, dated 2019)

Molecular target: T1, HDAC6 enzyme (Homo sapiens, UniProt Q9UBN7)
T1 construct: transducing full length HDAC6 gene into Sf-9 insect cells; GST; purchased SignalChem; host or cells: Sf-9 insect cells
T1 sequence (Q9UBN7 1-1215): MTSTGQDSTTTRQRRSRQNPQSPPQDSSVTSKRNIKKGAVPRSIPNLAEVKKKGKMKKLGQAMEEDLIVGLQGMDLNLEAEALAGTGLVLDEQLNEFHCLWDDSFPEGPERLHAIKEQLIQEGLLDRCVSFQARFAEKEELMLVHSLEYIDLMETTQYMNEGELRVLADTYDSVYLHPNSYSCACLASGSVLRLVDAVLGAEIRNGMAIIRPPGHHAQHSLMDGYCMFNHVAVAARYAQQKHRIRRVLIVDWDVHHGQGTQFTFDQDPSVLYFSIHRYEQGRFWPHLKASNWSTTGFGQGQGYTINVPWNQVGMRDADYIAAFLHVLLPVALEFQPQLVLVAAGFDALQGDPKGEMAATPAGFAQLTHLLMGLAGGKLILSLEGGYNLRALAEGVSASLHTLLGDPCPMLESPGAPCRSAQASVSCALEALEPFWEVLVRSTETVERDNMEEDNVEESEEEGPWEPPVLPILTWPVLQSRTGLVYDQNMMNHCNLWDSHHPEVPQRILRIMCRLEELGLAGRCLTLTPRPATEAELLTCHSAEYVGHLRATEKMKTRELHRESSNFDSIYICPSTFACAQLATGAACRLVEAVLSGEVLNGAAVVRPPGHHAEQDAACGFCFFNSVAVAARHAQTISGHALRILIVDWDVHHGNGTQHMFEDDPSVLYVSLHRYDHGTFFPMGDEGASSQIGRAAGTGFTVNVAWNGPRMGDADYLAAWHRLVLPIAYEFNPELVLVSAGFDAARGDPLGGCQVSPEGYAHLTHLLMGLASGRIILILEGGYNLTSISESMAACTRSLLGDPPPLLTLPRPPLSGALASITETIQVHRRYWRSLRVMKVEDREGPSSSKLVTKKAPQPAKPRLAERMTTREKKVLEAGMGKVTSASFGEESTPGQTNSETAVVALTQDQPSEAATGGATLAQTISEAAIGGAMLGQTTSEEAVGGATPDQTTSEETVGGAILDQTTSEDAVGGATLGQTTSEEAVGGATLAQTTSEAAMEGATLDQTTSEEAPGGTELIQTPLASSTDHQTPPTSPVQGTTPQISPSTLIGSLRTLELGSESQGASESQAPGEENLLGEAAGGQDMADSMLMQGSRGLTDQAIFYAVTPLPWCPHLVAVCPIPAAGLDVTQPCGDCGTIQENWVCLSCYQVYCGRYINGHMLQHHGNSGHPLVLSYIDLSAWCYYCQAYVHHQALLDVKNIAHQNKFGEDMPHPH
Experiment: HDAC6 enzyme inhibitory activity (HDAC-Glo I/II Assay kit)
Type: biochemical
Settings: 10 μM; wells without enzyme = 100% inhibition
Method in brief: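 Sf-9-derived GST-purified full-length HDAC6 + cpd, 60 min RT, 24 mM Tris pH 7.5/0.6 mM glutathione/0.01% Tween-20; add HDAC-Glo substrate-developer, 20 min RT; luminescence. No-enzyme = 100% inhibition.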

## O=C1c2cc(-c3nnc(C(F)F)o3)cnc2CN1[C@@H]1CCCC[C@H]1NC(=O)C(F)(F)C(F)(F)F [Example 489, N-((1R,2R)-2-(3-(5-(difluoromethyl)-1,3,4-oxadiazol-2-yl)-5-oxo-5,7-dihydro-6H-pyrrolo[3,4-b]pyridin-6-yl)cyclohexyl)-2,2,3,3,3-pentafluoropropanamide]
  HDAC6 inhibitory rate (%) (10 μM): 99%
